Test results: patent US9199946B2, “Pyrimidinone carboxamide inhibitors of endothelial lipase” (BRISTOL-MYERS SQUIBB COMPANY, priority 2012, dated 2015)
pIC50: −log10 of the molar value. Read-outs that look alike come from different tables or passages of the source.

Molecular target: T1, Endothelial lipase (EL) (Homo sapiens, UniProt Q9Y5X9)
T1 construct: HT-1080 cells, which were transformed by RAGE technology (Athersys) to overexpress endogenous EL; endogenous in cells; conditioned medium used as the enzyme source
T1 sequence (Q9Y5X9 21-500): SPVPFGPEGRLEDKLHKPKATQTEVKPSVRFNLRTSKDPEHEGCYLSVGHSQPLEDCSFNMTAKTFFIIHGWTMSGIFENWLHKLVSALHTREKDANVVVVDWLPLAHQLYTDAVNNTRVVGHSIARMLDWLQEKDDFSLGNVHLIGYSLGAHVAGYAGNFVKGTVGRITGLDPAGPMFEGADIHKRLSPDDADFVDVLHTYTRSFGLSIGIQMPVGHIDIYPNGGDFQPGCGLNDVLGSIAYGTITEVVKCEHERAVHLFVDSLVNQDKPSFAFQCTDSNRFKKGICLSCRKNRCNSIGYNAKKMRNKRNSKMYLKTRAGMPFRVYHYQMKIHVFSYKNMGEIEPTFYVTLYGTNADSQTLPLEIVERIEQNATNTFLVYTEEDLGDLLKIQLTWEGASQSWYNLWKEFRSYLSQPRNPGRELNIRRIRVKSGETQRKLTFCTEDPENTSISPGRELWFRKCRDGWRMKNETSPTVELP
Test: Endothelial lipase (EL) enzymatic assay with fluorescent substrate A10070 in DMPG vesicles
Assay type: biochemical
Summary of the method: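 The enzyme source was conditioned medium from HT-1080 cells engineered to overexpress endogenous EL. It was preincubated with compound for 20 min at 37 °C in 50 mM HEPES pH 8.0, 50 mM NaCl, 1 mM CaCl2. Reactions started with DMPG vesicles carrying FRET substrate A10070 (mole fraction 0.05). The rate was taken from the linear slope of fluorescence (ex 488/em 530 nm) over 10 min.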

[1] = range observed in the EL assay, read-out: EL IC50 values
[2] = conditioned media from HT-1080 cells overexpressing endogenous EL, 20 min preincubation at 37° C., read-out: EL IC50

| Structure (SMILES) | pIC50 [1] | pIC50 [2] |
| --- | --- | --- |
| COc1ccc2c(c1OC)CCC(NC(=O)c1[nH]c(=O)[nH]c(=O)c1N)C2 (stereo not shown) [Example 108, 5-amino-N-(5,6-dimethoxy-1,2,3,4-tetrahydronaphthalen-2-yl)-2,6-dioxo-1,2,3,6-tetrahydropyrimidine-4-carboxamide] | ≥ 5.00 | – |
| Cc1nn(C)c(C)c1-c1ccc([C@@H]2CC[C@H](NC(=O)c3[nH]c(=O)[nH]c(=O)c3N)C2)cc1 [Example 159, 5-amino-2,6-dioxo-N-((1S,3R)-3-(4-(1,3,5-trimethyl-1H-pyrazol-4-yl)phenyl)cyclopentyl)-1,2,3,6-tetrahydropyrimidine-4-carboxamide] | ≥ 5.00 | – |
| CC(C)Oc1ccc(C2CCC(NC(=O)c3[nH]c(=O)[nH]c(=O)c3O)C2)cc1 (stereo not shown) [Example 294, 5-hydroxy-N-(3-(4-isopropoxyphenyl)cyclopentyl)-2,6-dioxo-1,2,3,6-tetrahydropyrimidine-4 carboxamide] | ≥ 5.00 | – |
| C[C@H](Nc1c(C(=O)N[C@H]2CC[C@@H](c3ccccc3)CC2)[nH]c(=O)[nH]c1=O)C1CCCCC1 [Example 232, 5-((S)-1-cyclohexylethylamino)-2,6-dioxo-N-(cis-phenylcyclohexyl)-1,2,3,6-tetrahydropyrimidine-4-carboxamide] | ≥ 5.00 | – |
| COc1cccc2c1C(NC(=O)c1[nH]c(=O)[nH]c(=O)c1N)CCC2 (stereo not shown) [Example 66, 5-amino-N-(8-methoxy-1,2,3,4-tetrahydronaphthalen-1-yl)-2,6-dioxo-1,2,3,6-tetrahydropyrimidine-4-carboxamide] | ≥ 5.00 | – |
| Nc1c(C(=O)N[C@@H]2CC[C@@H](C(=O)NCc3nc4ccccc4s3)C2)[nH]c(=O)[nH]c1=O [Example 148, 5-amino-N-((1R,3R)-3-(benzo[d]thiazol-2-ylmethylcarbamoyl)cyclopentyl)-2,6-dioxo-1,2,3,6-tetrahydropyrimidine-4-carboxamide] | ≥ 5.00 | – |
| COc1cccc2c1CCCC2NC(=O)c1[nH]c(=O)[nH]c(=O)c1N (single isomer, unassigned; enantiomer a) [Example 198, 5-amino-N-(5-methoxy-1,2,3,4-tetrahydronaphthalen-1-yl)-2,6-dioxo 1,2,3,6-tetrahydropyrimidine-4-carboxamide (Enantiomer A)] | ≥ 5.00 | – |
| Nc1c(C(=O)NC2CCN(c3nc(Br)nn3Cc3ccccc3)C2)[nH]c(=O)[nH]c1=O (stereo not shown) [Example 187, 5-amino-N-(1-(1-benzyl-3-bromo-1H 1,2,4-triazol-5-yl)pyrrolidin-3-yl)-2,6 dioxo-1,2,3,6-tetrahydropyrimidine-4 carboxamide] | ≥ 5.00 | 6.02 |
| Nc1c(C(=O)N[C@H]2CCc3c(Br)cccc32)[nH]c(=O)[nH]c1=O [Example 60, (S)-5-amino-N-(4-bromo-2,3-dihydro-1H-inden-1-yl)-2,6-dioxo-1,2,3,6-tetrahydropyrimidine-4-carboxamide] | ≥ 5.00 | – |
| Nc1c(C(=O)NC2CCCC(c3cnn(Cc4ccccc4)c3)C2)[nH]c(=O)[nH]c1=O (stereo not shown) [Example 127, 5-amino-N-(3-(1-benzyl-1H-pyrazol-4-yl)cyclohexyl)-2,6-dioxo-1,2,3,6-tetrahydropyrimidine-4-carboxamide] | ≥ 5.00 | 7.52 |
| Nc1c(C(=O)N[C@@H]2CC[C@@H](C(=O)Nc3cnn(Cc4ccccc4)c3)C2)[nH]c(=O)[nH]c1=O [Example 149, 5-amino-N-((1R,3R)-3-(1-benzyl-1H-pyrazol-4-ylcarbamoyl)cyclopentyl)-2,6-dioxo-1,2,3,6-tetrahydropyrimidine-4-carboxamide] | ≥ 5.00 | – |
| Nc1c(C(=O)N[C@@H]2CCc3c(-c4ccccc4)cccc32)[nH]c(=O)[nH]c1=O [Example 137, (R)-5-amino-2,6-dioxo-N-(4-phenyl-2,3-dihydro-1H-inden-1-yl)-1,2,3,6-tetrahydropyrimidine-4-carboxamide] | ≥ 5.00 | 6.07 |
| O=C(N[C@@H]1CC[C@H](c2ccccc2)c2ccccc21)c1[nH]c(=O)[nH]c(=O)c1O [Example 250, 5-hydroxy-2,6-dioxo-N-((1R,4R)-4-phenyl-1,2,3,4-tetrahydronaphthalen-1-yl)-1,2,3,6-tetrahydropyrimidine-4-carboxamide] | ≥ 5.00 | – |
